Laboratory results taken from patent US20260109731A1, “NE[…] USE THEREOF” (HUNAN MINGRUI PHARMACEUTICAL CO., LTD., priority 2023, published 2026).
“And” between values parts separate entries of the source, which are not always exact repeats. Identical values can stand only once.

Columns and labels:
[1] = Pharmacokinetic analysis of oral gavage administration in female rats
Method: • Female SD rats (body weight: 200 g to 220 g) were purchased from BEIJING HFK BIOSCIENCE CO., LTD.
60 female SD rats were divided into two groups (Aoral and Boral), with 30 rats per group (5 rats per blood collection time point). The drugs Aoral and Boral were administered via oral gavage administration at 12 mg/kg each (about 1.6 mL of drug solution). Blood was collected from the orbital venous plexus at each time point (5 min, 30 min, 1 h, 2 h, 4 h, and 8 h) after administration, respectively, anticoagulated with heparin, and centrifuged, and then the plasma was separated and stored at −80° C. for later testing. At 8 h after blood collection, the animals were sacrificed, and the brain and Liver tissues were taken and stored at −80° C. for later testing.
100 μL of plasma sample, 10 μL of internal standard solution (100 ng/mL testosterone D-3 solution), and 310 μL of acetonitrile were accurately measured, uniformly mixed by vortexing, and centrifuged (14000 rpm, 4° C.), and a resulting supernatant was taken and detected using UPLC-MS/MS (the analysis method was the same as that in pharmacokinetic analysis in mice).
About 100 mg of brain or liver tissue sample was taken, and accurately weighed. 100 μL of water and 400 μL acetonitrile were accurately added thereto, and a resulting mixture was subjected to homogenization. 100 μL of brain or liver tissue homogenate, 10 μL of internal standard solution (100 ng/mL testosterone D-3 solution), and 310 μL of acetonitrile were accurately measured, uniformly mixed by vortexing, and centrifuged (14000 rpm, 4° C.), and a resulting supernatant was taken and detected using UPLC-MS/MS (the analysis method was the same as that in pharmacokinetic analysis in mice).

[2] = In vitro phase I metabolic stability in male SD rat hepatic microsomes; assay type: in vitro ADME; settings: male SD rat hepatic microsomes
Method: Phase I metabolic stability kit (purchased from HUIZHI HEYUAN BIOTECHNOLOGY (BEIJING) CO., LTD), with the following components of the product:
Positive substrate testosterone solution (10 mM): diluted with acetonitrile to prepare a 200 μM solution for later use; stop solution & internal standard (testosterone-D3): dissolved with acetonitrile to prepare a 5 ng/mL solution for later use.
• 1) all components of the kit were thawed in an ice bath and placed on ice for later use; • 2) an incubation system (taking 200 μL system as an example) was prepared:
• 3) 160 μL of pre-incubation solution B was added into the centrifuge tube containing 40 μL of pre-incubation solution A, uniform mixing was performed by pipetting three times, and the resulting mixture was immediately placed in a water bath at 37° C. for incubation and timing was started; • 4) at predetermined incubation time points (0, 5, 10, 15, 30, 45, 60 minutes), the incubation solution was quantitatively taken out, and 200 μL of stop solution (5 ng/mL testosterone-D3 in acetonitrile, pre-chilled at 4° C.) was added to terminate the reaction (stop solution volume: incubation system volume=1:1). Experimental samples were prepared in triplicate at each time point.
To verify the validity of the experiment, a positive control group was established concurrently in the whole experiment to evaluate whether the incubation system functioned properly, with the preparation method as follows: the compound to be tested was replaced with the positive substrate testosterone (200 μM in acetonitrile) from the phase I metabolic stability kit, and the other components of the incubation system and experimental method were the same as those of the experimental group.
The ratio of the chromatographic peak area of the compound to be tested to the chromatographic peak area of the testosterone-D3 (internal standard) was used as the calculated data. By taking the peak area ratio at time zero of the test compound as 100%, the remaining percentages were calculated by comparing the peak area ratio at each time point with the peak area ratio at time zero, and the natural logarithms of the remaining percentages of the substrate at each time point are then subjected to linear regression against the incubation times to obtain the slope k. Therefore, the in vitro metabolic half-life (T1/2) and intrinsic clearance (CLint) were calculated using the following formulas: […]

[3] = Pharmacokinetic analysis of oral administration to male rats; assay type: in vivo; settings: oral gavage 12 mg/kg; for Blood drug concentration: individual rats 1-7
From the text: Male SD rats (body weight: 230 g to 250 g) were purchased from BEIJING HFK BIOSCIENCE CO., LTD.

CC(=O)[C@H]1CC[C@H]2[C@@H]3CC[C@H]4C[C@H](O[N+](=O)[O-])CC[C@]4(C)[C@H]3CC[C@]12C [Compound 1]
Oral bioavailability ([1]; female SD rats, oral gavage 12 mg/kg vs tail vein 3 mg/kg): >65%
clearance ([1]; female SD rats, oral gavage, 12 mg/kg, sesame oil solution): 9.67 mL/min/kg
concentration at 8 h ([1]; female, SD, rat, brain, po, 12 mg/kg): 1640 ng/g
Kp at 8 h ([1]; female, SD, rat, brain/plasma, po, 12 mg/kg): 2.95
concentration at 8 h ([1]; female, SD, rat, liver, po, 12 mg/kg): 3700 ng/g
bioavailability ([1]; female, SD, rat, plasma, oral, 12 mg/kg): > 65%
Tmax ([1]; female, SD, rat, plasma, po, 12 mg/kg): > 8 h
half-life ([2]; liver microsomes, NADPH system, 37° C., read-out: T1/2 (in vitro metabolic half-life)): 1.56 h
microsomal CLint ([2]; liver microsomes, read-out: intrinsic clearance): 14.8 µL/min/mg
In vitro CLint ([2]; 37° C.): 14.82 μL/min/mg protein
k (slope of ln remaining percentage against incubation time) ([2]; 37° C.): −0.0074
Blood drug concentration ([3]; male SD rats, 0.5 h, 12 mg/kg): 4.1 ng/mL and 5.7 ng/mL and 16.2 ng/mL and 8.7 ng/mL and 8.3 ng/mL and 8.1 ng/mL and 8.4 ng/mL
Blood drug concentration ([3]; male SD rats, 1 h, 12 mg/kg): 14.1 ng/mL and 18.9 ng/mL and 35.9 ng/mL and 31.5 ng/mL and 22.3 ng/mL and 23.8 ng/mL and 50.6 ng/mL
Blood drug concentration ([3]; male SD rats, 2 h, 12 mg/kg): 38.2 ng/mL and 85.8 ng/mL and 132.2 ng/mL and 88.8 ng/mL and 111.4 ng/mL and 123 ng/mL and 251.1 ng/mL
Blood drug concentration ([3]; male SD rats, 3 h, 12 mg/kg): 71.9 ng/mL and 121.8 ng/mL and 288.6 ng/mL and 243.6 ng/mL and 103.9 ng/mL and 130.9 ng/mL and 616.7 ng/mL
Blood drug concentration ([3]; male SD rats, 4 h, 12 mg/kg): 95.1 ng/mL and 147 ng/mL and 279.6 ng/mL and 252.2 ng/mL and 270.9 ng/mL and 343.8 ng/mL and 318.5 ng/mL
Blood drug concentration ([3]; male SD rats, 5 h, 12 mg/kg): 250.4 ng/mL and 142.4 ng/mL and 252.4 ng/mL and 284.1 ng/mL and 262.5 ng/mL and 410.7 ng/mL and 582.4 ng/mL
Blood drug concentration ([3]; male SD rats, 6 h, 12 mg/kg): 259.8 ng/mL and 263.9 ng/mL and 161.2 ng/mL and 260.7 ng/mL and 287.5 ng/mL and 409.8 ng/mL and 687.1 ng/mL
Blood drug concentration ([3]; male SD rats, 8 h, 12 mg/kg): 121.7 ng/mL and 276.1 ng/mL and 383.6 ng/mL and 523.1 ng/mL and 496.4 ng/mL and 78.9 ng/mL and 556.5 ng/mL
Blood drug concentration ([3]; male SD rats, 10 h, 12 mg/kg): 167.3 ng/mL and 1144.3 ng/mL and 424.6 ng/mL and 914.9 ng/mL and 382.7 ng/mL and 196.1 ng/mL and 396.3 ng/mL
Blood drug concentration ([3]; male SD rats, 12 h, 12 mg/kg): 513.5 ng/mL and 873.9 ng/mL and 343.7 ng/mL and 730.7 ng/mL and 234.9 ng/mL and 303.8 ng/mL and 285.4 ng/mL
Blood drug concentration ([3]; male SD rats, 18 h, 12 mg/kg): 68.5 ng/mL and 110.5 ng/mL and 196.7 ng/mL and 97 ng/mL and 83.3 ng/mL and 73.4 ng/mL and 134.5 ng/mL
Blood drug concentration ([3]; male SD rats, 24 h, 12 mg/kg): 13.7 ng/mL and 68.5 ng/mL and 61.6 ng/mL and 20.7 ng/mL and 27.6 ng/mL and 13.8 ng/mL and 133.4 ng/mL
Tmax ([3]; male SD rats, 12 mg/kg): 9.7 h
concentration at 0.5 h ([3]; male, SD, rat, plasma, po, 12 mg/kg, 0.5 h, mean of 7 rats, read-out: Blood drug concentration, Mean value): 8.5 ng/mL
concentration at 1 h ([3]; male, SD, rat, plasma, po, 12 mg/kg, 1 h, mean of 7 rats, read-out: Blood drug concentration, Mean value): 28.2 ng/mL
concentration at 2 h ([3]; male, SD, rat, plasma, po, 12 mg/kg, 2 h, mean of 7 rats, read-out: Blood drug concentration, Mean value): 119 ng/mL
concentration at 3 h ([3]; male, SD, rat, plasma, po, 12 mg/kg, 3 h, mean of 7 rats, read-out: Blood drug concentration, Mean value): 225 ng/mL
concentration at 4 h ([3]; male, SD, rat, plasma, po, 12 mg/kg, 4 h, mean of 7 rats, read-out: Blood drug concentration, Mean value): 244 ng/mL
concentration at 5 h ([3]; male, SD, rat, plasma, po, 12 mg/kg, 5 h, mean of 7 rats, read-out: Blood drug concentration, Mean value): 312 ng/mL
concentration at 6 h ([3]; male, SD, rat, plasma, po, 12 mg/kg, 6 h, mean of 7 rats, read-out: Blood drug concentration, Mean value): 333 ng/mL
concentration at 8 h ([3]; male, SD, rat, plasma, po, 12 mg/kg, 8 h, mean of 7 rats, read-out: Blood drug concentration, Mean value): 348 ng/mL
concentration at 10 h ([3]; male, SD, rat, plasma, po, 12 mg/kg, 10 h, mean of 7 rats, read-out: Blood drug concentration, Mean value): 518 ng/mL
concentration at 12 h ([3]; male, SD, rat, plasma, po, 12 mg/kg, 12 h, mean of 7 rats, read-out: Blood drug concentration, Mean value): 469 ng/mL
concentration at 18 h ([3]; male, SD, rat, plasma, po, 12 mg/kg, 18 h, mean of 7 rats, read-out: Blood drug concentration, Mean value): 109 ng/mL
concentration at 24 h ([3]; male, SD, rat, plasma, po, 12 mg/kg, 24 h, mean of 7 rats, read-out: Blood drug concentration, Mean value): 48.5 ng/mL
Tmax ([3]; male, SD, rat, plasma, po, 12 mg/kg, read-out: Tmax): ~10 h
AUC(0-inf) ([3]; rat, plasma, male SD rats): 6220 ng·h/mL
AUC(0-t) ([3]; rat, plasma, male SD rats): 5830 ng·h/mL
Cmax ([3]; rat, plasma, male SD rats): 649 ng/mL
half-life ([3]; rat, plasma, male SD rats): 4.5 h
